Experiment: xn = mol fraction of the nth substance listed
Details: 101 kPa, Liquid; for viscosity: Concentric cylinders viscometry; for mass density: Vibrating tube method

COCCOCCOCCOCCOC [2,5,8,11,14-pentaoxapentadecane] + CCCCO
Details	mass density [kg/m3]	viscosity [mPa·s]
288.15 K, x2 = 0	1015.63	4.341
288.15 K, x2 = 0.1013	1006.51	4.077
288.15 K, x2 = 0.2236	993.986	3.779
288.15 K, x2 = 0.3036	984.642	3.567
288.15 K, x2 = 0.4131	969.983	3.317
288.15 K, x2 = 0.5065	955.349	3.129
288.15 K, x2 = 0.5996	938.288	2.945
288.15 K, x2 = 0.7007	916.154	2.795
288.15 K, x2 = 0.7991	889.873	2.74
288.15 K, x2 = 0.8996	856.379	2.875
293.15 K, x2 = 0	1011	3.834
293.15 K, x2 = 0.1013	1001.91	3.591
293.15 K, x2 = 0.2236	989.415	3.315
293.15 K, x2 = 0.3036	980.1	3.139
293.15 K, x2 = 0.4131	965.493	2.922
293.15 K, x2 = 0.5065	950.916	2.77
293.15 K, x2 = 0.5996	933.921	2.603
293.15 K, x2 = 0.7007	911.881	2.474
293.15 K, x2 = 0.7991	885.715	2.428
293.15 K, x2 = 0.8996	852.384	2.546
298.15 K, x2 = 0	1006.36	3.38
298.15 K, x2 = 0.1013	997.307	3.152
298.15 K, x2 = 0.2236	984.881	2.93
298.15 K, x2 = 0.3036	975.56	2.783
298.15 K, x2 = 0.4131	960.897	2.599
298.15 K, x2 = 0.5065	946.305	2.462
298.15 K, x2 = 0.5996	929.548	2.321
298.15 K, x2 = 0.7007	907.599	2.206
298.15 K, x2 = 0.7991	881.548	2.165
298.15 K, x2 = 0.8996	848.369	2.263
303.15 K, x2 = 0	1001.73	3.004
303.15 K, x2 = 0.1013	992.702	2.814
303.15 K, x2 = 0.2236	980.276	2.62
303.15 K, x2 = 0.3036	971.014	2.488
303.15 K, x2 = 0.4131	956.499	2.328
303.15 K, x2 = 0.5065	942.026	2.208
303.15 K, x2 = 0.5996	925.164	2.087
303.15 K, x2 = 0.7007	903.304	1.987
303.15 K, x2 = 0.7991	877.365	1.945
303.15 K, x2 = 0.8996	844.334	2.015
308.15 K, x2 = 0	997.104	2.691
308.15 K, x2 = 0.1013	988.097	2.525
308.15 K, x2 = 0.2236	975.701	2.357
308.15 K, x2 = 0.3036	966.466	2.241
308.15 K, x2 = 0.4131	951.994	2.1
308.15 K, x2 = 0.5065	937.569	1.991
308.15 K, x2 = 0.5996	920.77	1.885
308.15 K, x2 = 0.7007	898.993	1.796
308.15 K, x2 = 0.7991	873.162	1.757
308.15 K, x2 = 0.8996	840.275	1.807
313.15 K, x2 = 0	992.481	2.426
313.15 K, x2 = 0.1013	983.495	2.278
313.15 K, x2 = 0.2236	971.126	2.134
313.15 K, x2 = 0.3036	961.914	2.034
313.15 K, x2 = 0.4131	947.487	1.905
313.15 K, x2 = 0.5065	933.108	1.812
313.15 K, x2 = 0.5996	916.363	1.712
313.15 K, x2 = 0.7007	894.665	1.631
313.15 K, x2 = 0.7991	868.935	1.592
313.15 K, x2 = 0.8996	836.188	1.628
318.15 K, x2 = 0	987.859	2.199
318.15 K, x2 = 0.1013	978.879	2.074
318.15 K, x2 = 0.2236	966.542	1.942
318.15 K, x2 = 0.3036	957.357	1.853
318.15 K, x2 = 0.4131	942.969	1.738
318.15 K, x2 = 0.5065	928.631	1.653
318.15 K, x2 = 0.5996	911.939	1.562
318.15 K, x2 = 0.7007	890.317	1.488
318.15 K, x2 = 0.7991	864.686	1.45
318.15 K, x2 = 0.8996	832.069	1.47
323.15 K, x2 = 0	983.234	2.006
323.15 K, x2 = 0.1013	974.275	1.892
323.15 K, x2 = 0.2236	961.962	1.777
323.15 K, x2 = 0.3036	952.794	1.698
323.15 K, x2 = 0.4131	938.437	1.592
323.15 K, x2 = 0.5065	924.136	1.515
323.15 K, x2 = 0.5996	907.495	1.432
323.15 K, x2 = 0.7007	885.946	1.362
323.15 K, x2 = 0.7991	860.406	1.325
323.15 K, x2 = 0.8996	827.911	1.334
328.15 K, x2 = 0	978.613	1.838
328.15 K, x2 = 0.1013	969.653	1.736
328.15 K, x2 = 0.2236	957.366	1.633
328.15 K, x2 = 0.3036	948.222	1.558
328.15 K, x2 = 0.4131	933.901	1.465
328.15 K, x2 = 0.5065	919.635	1.394
328.15 K, x2 = 0.5996	903.036	1.318
328.15 K, x2 = 0.7007	881.55	1.254
328.15 K, x2 = 0.7991	856.094	1.213
328.15 K, x2 = 0.8996	823.712	1.209
333.15 K, x2 = 0	973.989	1.691
333.15 K, x2 = 0.1013	965.036	1.612
333.15 K, x2 = 0.2236	952.77	1.516
333.15 K, x2 = 0.3036	943.642	1.448
333.15 K, x2 = 0.4131	929.347	1.359
333.15 K, x2 = 0.5065	915.11	1.289
333.15 K, x2 = 0.5996	898.551	1.223
333.15 K, x2 = 0.7007	877.126	1.161
333.15 K, x2 = 0.7991	851.747	1.119
333.15 K, x2 = 0.8996	819.469	1.104

— the NIST ThermoML archive (doi:10.1007/s10765-013-1469-0)
